Laboratory results: ChEMBL document CHEMBL4622937, “Design, synthesis, and biological evaluation of spiroindolines as novel inducers of oligodendrocyte progenitor cell differentiation-Use of a conformation-based hypothesis to facilitate compound design” (Bioorg Med Chem Lett, 2020)

Test: Induction of rat oligodendrocyte progenitor cells differentiation assessed as myelin basic protein expression level
Type: functional

Compound | EC50
CN1c2cc(F)ccc2CC12CCN(CC1CCOCC1)CC2 | 10 nM
O=C1c2cc(C(F)(F)F)ccc2NC12CCN(CC1CCOCC1)CC2 | 3.2 nM
FC(F)(F)c1ccc2c(c1)N(CC1CCOCC1)C1(CCN(CC3CCOCC3)CC1)C2 | 13 nM
COC1(CN2CCC3(CC2)Cc2ccc(C(F)(F)F)cc2N3C)CCOCC1 | 54 nM
CN1c2ccc(C(F)(F)F)cc2C(=O)C12CCN(CC1CCOCC1)CC2 | 9.3 nM
FC(F)(F)c1ccc2c(c1)CC1(CCN(CC3CCOCC3)CC1)N2 | 240 nM
CN1c2cc(C(F)(F)F)ccc2CC12CCN(CC1CCC(F)(F)CC1)CC2 | 4.7 nM
CN1c2cc(C(F)(F)F)ccc2CC12CCN(CC1CCOCC1)CC2 | 1.9 nM
FC(F)(F)c1ccc2c(c1)N(Cc1ccccc1)C1(CCN(CC3CCOCC3)CC1)C2 | 3.7 nM
CC(C)(C)OC(=O)CN1c2cc(C(F)(F)F)ccc2CC12CCN(CC1CCOCC1)CC2 | 15 nM
CN1c2ccc(C(F)(F)F)cc2CC12CCN(CC1CCOCC1)CC2 | 7100 nM
CC(=O)N1c2cc(C(F)(F)F)ccc2CC12CCN(CC1CCOCC1)CC2 | 60 nM
COCCN1CCC2(CC1)Cc1ccc(C(F)(F)F)cc1N2C | 250 nM
O=C1c2ccc(C(F)(F)F)cc2NC12CCN(CC1CCOCC1)CC2 | 54 nM
CN1c2cc(C(F)(F)F)ccc2CC12CCN(CC1(O)CCOCC1)CC2 | 5.8 nM
COCCCN1CCC2(CC1)Cc1ccc(C(F)(F)F)cc1N2C | 240 nM
CN(C)C(=O)CN1c2cc(C(F)(F)F)ccc2CC12CCN(CC1CCOCC1)CC2 | 700 nM
CN1c2cc(C(F)(F)F)ccc2C(=O)C12CCN(CC1CCOCC1)CC2 | 1.4 nM
CN1c2cc(Cl)ccc2CC12CCN(CC1CCOCC1)CC2 | 19 nM
OCCN1c2cc(C(F)(F)F)ccc2CC12CCN(CC1CCOCC1)CC2 | 74 nM
